Reference: US20120122727A1, “IN VITRO METHOD FOR PREDICTING WHETHER A COMPOUND IS GENOTOXIC IN VIVO” (priority 2009, published 2012)

Tested on: primary mouse hepatocytes
Test: Gene expression (Affymetrix Mouse Genome 430 2.0) in primary mouse hepatocytes, true vs false GTX, 24 h and 48 h
Conditions: log2, corrected for vehicle control

## Nc1ccccc1C(=O)O [ANAC, o-Anthranilic acid]
24 h average
  Gene expression data AF000969 (Cadps2): −0.12
  Gene expression data AF022072 (Grb10): 0.4544
  Gene expression data AF065917 (Lif): −0.2023
  Gene expression data AF204959 (Cyp3a25 /// LOC622249): −0.28
  Gene expression data AF297615 (Ggta1): 0.03103
  Gene expression data AI594683 (Dmn): −0.2163
  Gene expression data AI596632 (Ptprg /// LOC632664): 0.1214
  Gene expression data AI987929 (Ndrg1): 0.6977
  Gene expression data AK004419 (Fbxl17): −0.01793
  Gene expression data AK005731 (1700007K13Rik): −0.1733
  Gene expression data AK007766 (1810044A24Rik): −0.05167
  Gene expression data AK007854 (1810053B23Rik): −0.4283
  Gene expression data AK009736 (Gpr137b /// LOC664862 /// LOC673335): −0.0957
  Gene expression data AK010447 (Smyd3): −0.1211
  Gene expression data AK014608 (4632434l11Rik): −0.1768
  Gene expression data AK019979 (2610528E23Rik): 0.1139
  Gene expression data AV095209 (Mthfd1l): 0.3162
  Gene expression data AV141095 (1110033M05Rik): −0.1293
  Gene expression data AV173571 (1700106N22Rik): −0.1574
  Gene expression data AV219418 (Ldhb): −0.2907
  Gene expression data AV223474 (Zdhhc14): −0.07347
  Gene expression data AV298304 (Homez): −0.0861
  Gene expression data AV327248 (Zfp365 /// LOC674611): 0.0212
  Gene expression data AV377066 (9130221J18Rik): −0.2482
  Gene expression data AW240761 (Tbc1d5): 0.001667
  Gene expression data AW543460 (Pard3): 0.06037
  Gene expression data AW543723: 0.2943
  Gene expression data AW986246 (Maoa): 0.01683
  Gene expression data BB027848 (4732466D17Rik): −0.03697
  Gene expression data BB043558 (9230114K14Rik): −0.1292
  Gene expression data BB275142 (AW456874): 0.02823
  Gene expression data BB308836 (Ppm1l): −0.0317
  Gene expression data BB318221 (Zdhhc14): 0.0002333
  Gene expression data BB463610 (4632434l11Rik): −0.3672
  Gene expression data BB526605 (Mipol1): 0.3407
  Gene expression data BB770528 (Rai2): −0.08327
  Gene expression data BB821363 (Scfd2): −0.084
  Gene expression data BC004827 (Psat1): 0.3937
  Gene expression data BC008626 (Icam1): −0.2705
  Gene expression data BC010462 (BC010462): −0.4089
  Gene expression data BC012247 (Dcxr): −0.0311
  Gene expression data BC012260 (Psmf1): −0.1838
  Gene expression data BC015270 (Hist2h3c2): 0.1186
  Gene expression data BC016073 (Cdkal1): 0.0051
  Gene expression data BC016265 (Ube2e2): 0.01507
  Gene expression data BC019882 (Acaa1b): 1.0984
  Gene expression data BC025501 (Aaas): −0.2261
  Gene expression data BC025837 (Sbk1): −0.3033
  Gene expression data BC025915 (Cova1): −0.05383
  Gene expression data BC026422 (Tgm1): 0.0232
  Gene expression data BF719766 (Thyn1): −0.1153
  Gene expression data BG065754 (Ccng1): −0.08917
  Gene expression data BG066903 (Kif16b): 0.0241
  Gene expression data BG069873 (Gnb1l): −0.2107
  Gene expression data BG070887 (Gtdc1): −0.05163
  Gene expression data BG076151 (Ppm1d): −0.08637
  Gene expression data BG261907 (Large): 0.09293
  Gene expression data BI651416 (Cdc42bpg): 0.01387
  Gene expression data BI660702 (Ell3): −0.1539
  Gene expression data BM198879 (Ercc5): −0.2194
  Gene expression data BM230508 (A030007D23Rik): −0.1178
  Gene expression data NM_007987 (Fas): −0.1337
  Gene expression data NM_008522 (Ltf): 0.0771
  Gene expression data NM_008576 (Abcc1): 0.3586
  Gene expression data NM_011176 (St14): −0.1445
  Gene expression data NM_011316 (Saa4): −0.1988
  Gene expression data NM_012006 (Acot1): 1.862
  Gene expression data NM_013866 (Zfp385): −0.1953
  Gene expression data NM_018770 (Igsf4a): −0.08853
  Gene expression data NM_021451 (Pmaip1): 0.01303
  Gene expression data NM_025770 (Atg10): −0.01263
  Gene expression data NM_028803 (Gbe1): −0.0826
  Gene expression data NM_030697 (Ankrd47): −0.1623
  Gene expression data NM_053168 (Trim11): −0.201
  Gene expression data NM_134188 (Acot2): 0.8696
  Gene expression data Y15910 (Diap2): 0.06533
48 h
  Gene expression AA561726 average: 0.3194
  Gene expression AF000969 average: −0.5599
  Gene expression AF022072 average: 0.5563
  Gene expression AF033112 average: 0.1422
  Gene expression AF055573 average: −0.1687
  Gene expression AF069954 average: −0.3847
  Gene expression AF297615 average: 0.111
  Gene expression AF335325 average: −0.0865
  Gene expression AI594683 average: −0.5224
  Gene expression AI747296 average: −0.0394
